Measured values published in publication PMC7360964, “Auto‐inhibition of Mif2/CENP‐C ensures centromere‐dependent kinetochore assembly in budding yeast” (The EMBO Journal, 2020).

B1: Mif2‐ΔsigAT: Mif2 variant that lacks signature motif and AT-hook (protein)
chain: MDYMKLGLKSRKTGIDVKQDIPKDEYSMENIDDFFKDDETSLISMRRKSRRKSSLFLPSTLNGDTKNVLPPFLQSYKSQDDEVVQSPSGKGDGSRRSSLLSHQSNFLSPANDFEPIEEEPEQEENDIRGNDFATPITQKLSKPTYKRKYSTRYSLDTSESPSVRLTPDRITNKNVYSDVPDLVADEDDDDRVNTSLNTSDNALLEDELEDDGFIPESEEDGDYIESDSSLDSGSDSASDSDGDNTYQEVEEEAEVNTNDNEDDYIRRQASDVVRTDSIIDRNGAKENLIPEDPNEDIIERIESGGIENGEWLKHGILEANVKISDTKEETKDEIIAFAPNLSQTEQVKDTKDENFALEIMFDKHKEYFASGILKLPAISGQKKLSNSFRTYITFHVIQGIVEVTVCKNKFLSVKGSTFQIPAFNEYAIANRGNDEAKMFFVQVTVSEDANDDNDKELDSTFDTFG
modifications: left off: Flag, C-terminal, kept
notes: Mif2 variant that lacks signature motif and AT-hook

Legend:
[1] = tested on: Mtw1‐GFP kinetochores; test: Kinetochore microscopy (Mtw1-GFP, Spc42-mCherry) in Mif2-overexpressing cells; format: cell-based, budding yeast; conditions: large-budded cells, galactose, 100 cells per strain, 2 independent experiments
Description: Figure 8 Auto‐inhibition of Mif2 is crucial for chromosome segregation and cell viability • Phenotypic analysis of Mif2 mutants using a galactose‐inducible overexpression system. Strains harboring the indicated Mif2 expression constructs on pESC plasmids were plated in serial dilution on doHIS‐glucose or doHIS‐raffinose/galactose plates and incubated at 30°C. • Serial dilution assay of chromosomally integrated Mif2 variants under the control of the pGAL promoter. Strains were plated on YEP‐glucose and YEP‐raffinose/galactose plates and incubated at 25°C. • Analysis of chromosome segregation in strains from (B). Distribution of fluorescently labeled chromosome III was analyzed in large‐budded cells 16 h after switching the medium to galactose. Scale bar represents 2 μm. • Microscopic analysis of kinetochores in Mif2‐overexpressing cells visualizing Mtw1‐GFP and Spc42‐mCherry. Images of representative large‐budded cells after 16 h in galactose are shown. One kinetochore cluster is enlarged in the white box for each strain. Scale bar represents 5 μm. […] Only large‐budded cells were included in the analysis. • Quantification of (D) in which large‐budded cells were classified according to their Mtw1‐GFP signal into the four indicated groups. A total of 100 cells were quantified for every strain. Mean values of the three indicated groups were calculated and plotted in a bar chart. […]

[2] = tested on: budding yeast; conditions: ref Hornung et al, 2014; cited from earlier work
Text: Figure 1 Ame1 and Mif2 are Mtw1c receptors that promote outer kinetochore assembly Left panel: Comparison of kinetochore assembly plans. Generally, inner kinetochores are represented by the […] centromere‐associated network (CCAN) of which Ame1 and Mif2 are the only essential subunits in S. cerevisiae. Right panel: Among other functions, Ame1 and Mif2 both act as receptors for the outer kinetochore component Mtw1c using short binding motifs at their N‐termini. An Ame1ΔN is lethal, while a Mif2ΔN mutant is viable. Two different scenarios for Mtw1c‐receptor configurations are indicated.

[3] = tested on: yeast growth; test: Galactose-inducible overexpression growth assay (serial dilution); format: cell-based, budding yeast; conditions: two-micron pESC plasmid, 30°C
Text: What is the consequence of expressing Mif2^Ame1‐N swap in cells? […] To assess this effect in a more systematic manner, we expressed Mif2‐wt, Mif2‐ΔN, or Mif2^Ame1‐N swap under the control of a galactose‐inducible promoter in an otherwise wild‐type background. […] To further analyze the toxic effect of Mif2^Ame1‐N swap in cells, we stably integrated the different Mif2 versions under the control of the GAL10 promoter at the URA3 locus and again analyzed growth on plates. We included an additional strain in which Mif2 swap was mutated so that it cannot bind Mtw1c (R10E mutation in the RxxG motif). […]
Figure 8 Auto‐inhibition of Mif2 is crucial for chromosome segregation and cell viability • Phenotypic analysis of Mif2 mutants using a galactose‐inducible overexpression system. […] Distribution of fluorescently labeled chromosome III was analyzed in large‐budded cells 16 h after switching the medium to galactose. […] Only large‐budded cells were included in the analysis. • Quantification of (D) in which large‐budded cells were classified according to their Mtw1‐GFP signal into the four indicated groups. A total of 100 cells were quantified for every strain. Mean values of the three indicated groups were calculated and plotted in a bar chart. […]

[4] = tested on: Mif2‐FRB strains; test: Anchor-away growth assay, Mif2 alleles; format: cell-based, budding yeast; conditions: rapamycin
[5] = tested on: Mtw1‐Nnf1 complex (MN); test: Flag pulldown of MN by Mif2 variants; format: binding, budding yeast; conditions: bait 1 μM, MN 3 μM; Coomassie or Western blot against His-tag on Nnf1
Text: (§1) If intramolecular interactions between the Mif2 N‐terminus and other parts of the molecule limit the ability to bind MN, then removing this auto‐inhibitory domain should increase the affinity for MN. […] We conclude that apart from residues in its N‐terminus, also residues in the signature motif and AT‐hook of Mif2 are responsible for the ability to adopt an auto‐inhibited conformation.
(§2) Figure 6 Mif2 auto‐inhibition depends on its Cse4 and DNA‐binding motifs • Schematic introduction of Mif2wt and Mif2‐ΔsigAT in which its Cse4 and DNA‐binding motifs have been removed. […]
(§3) The GST pulldown experiment was performed using BSA‐preblocked GSH Sepharose beads. […] Beads were washed twice in pulldown buffer, before Laemmli sample buffer was added to the beads (GST pulldown) or proteins were eluted in pulldown buffer supplemented with 1 mg/ml Flag peptide before addition of Laemmli sample buffer (Flag pulldown) and samples were analyzed on a Coomassie Brilliant Blue‐stained SDS–PAGE gel or Western blotting. […] Elution of proteins was monitored at 280 nm. 100 μl fractions were collected and analyzed by SDS–PAGE and Coomassie Brilliant Blue staining or Western blotting. […] After several washes with lysis buffer, proteins were eluted with 0.2 mg/ml 3xFlag peptide in lysis buffer, and fractions were analyzed by Western blotting. […]

[6] = tested on: MN; test: Analytical SEC of Mif2 variants with MN; format: binding, budding yeast; conditions: 10 μM, 1 h at 4°C
Text: as §1, §2, §3

Molecule | kinetochore signal localization [1] | viability / phenotype [2] | effect of overexpression on growth [3] | viability ([4]; ctf3 or chl4 deletion backgrounds) | rescue of Mif2-FRB lethality ([4]; ctf19Δ background) | co-purification of MN [5] | binding to MN by SEC [6]
Mif2‐ΔN: Mif2 lacking the N-terminus (Mif2-D1-35) | closely associated with spindle pole bodies | viable | tolerated well and did not greatly impact yeast viability | lethality | not Mif2‐ΔN, was able to rescue the lethality | – | –
B1 | – | – | impairs growth | – | – | able to co‐purify a significantly increased amount of MN | increased binding to MN as compared to Mif2‐wt
